Measurements from patent US20250213555A1, “SUBSTITUTED TETRAHYDROFURAN ANALOGS AS MODULATORS OF SODIUM CHANNELS” (VERTEX PHARMACEUTICALS INCORPORATED, priority 2021, published 2025).

Each compound was assayed against human Nav 1.8 (Homo sapiens, UniProt Q9Y5Y9) (assay: E-VIPR assay detecting and measuring Nav inhibition properties). Conditions: HEK cells expressing a truncated form of human Nav 1.8; compound numbers without "*" (not marked as run in the presence of human serum); read-out: measured IC50 value in the E-VIPR Assay.
Type: cell-based
Procedure, shortened: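 Nav inhibition was read by E-VIPR: cells were electrically stimulated while coumarin/oxonol FRET emissions were recorded. Cells were HEK expressing a truncated human Nav 1.8 and co-transduced with KIR2.1, and were assayed in 25% final human serum.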

human Nav 1.8, sequence (Q9Y5Y9 126-399 limits assumed): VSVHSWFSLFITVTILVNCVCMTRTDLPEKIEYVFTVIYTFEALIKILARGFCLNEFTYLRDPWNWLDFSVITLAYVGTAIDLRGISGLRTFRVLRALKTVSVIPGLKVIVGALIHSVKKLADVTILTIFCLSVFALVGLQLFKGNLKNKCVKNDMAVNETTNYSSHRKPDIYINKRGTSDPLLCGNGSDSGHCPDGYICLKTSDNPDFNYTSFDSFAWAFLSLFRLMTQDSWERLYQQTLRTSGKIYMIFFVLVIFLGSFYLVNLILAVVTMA
human Nav 1.8, sequence (Q9Y5Y9 660-890 limits assumed): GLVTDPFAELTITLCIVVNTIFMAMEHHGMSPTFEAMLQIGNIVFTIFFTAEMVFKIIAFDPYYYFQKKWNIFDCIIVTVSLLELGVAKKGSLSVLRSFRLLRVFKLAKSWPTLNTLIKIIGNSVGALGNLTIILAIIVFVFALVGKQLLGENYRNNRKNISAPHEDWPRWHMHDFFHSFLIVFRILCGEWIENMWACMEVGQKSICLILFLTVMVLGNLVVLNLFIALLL
human Nav 1.8, sequence (Q9Y5Y9 1148-1722 limits assumed): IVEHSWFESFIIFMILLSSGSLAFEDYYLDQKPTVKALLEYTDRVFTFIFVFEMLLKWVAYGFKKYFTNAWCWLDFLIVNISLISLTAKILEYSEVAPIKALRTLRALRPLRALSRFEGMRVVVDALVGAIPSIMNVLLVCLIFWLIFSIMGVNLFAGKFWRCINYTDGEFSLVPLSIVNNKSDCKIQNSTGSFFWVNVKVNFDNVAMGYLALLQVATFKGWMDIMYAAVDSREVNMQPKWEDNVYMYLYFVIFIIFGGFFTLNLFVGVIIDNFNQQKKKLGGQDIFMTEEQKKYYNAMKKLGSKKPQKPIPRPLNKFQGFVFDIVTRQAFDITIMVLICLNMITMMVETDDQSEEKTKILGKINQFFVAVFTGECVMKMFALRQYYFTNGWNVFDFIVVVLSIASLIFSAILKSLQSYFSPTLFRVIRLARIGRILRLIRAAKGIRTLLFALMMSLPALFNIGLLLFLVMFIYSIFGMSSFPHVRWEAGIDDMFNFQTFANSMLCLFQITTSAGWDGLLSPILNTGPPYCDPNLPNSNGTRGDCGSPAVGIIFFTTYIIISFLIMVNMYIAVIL

Row | IC50 [nM] | SMILES
1 | 10 to 100 | COc1c([C@H]2[C@H](C(=O)Nc3ccnc(C(=O)N4C5CC4CN(C)C5)c3)O[C@@](C)(C(F)(F)F)[C@H]2C)ccc(F)c1F [Compound 276, (2R,3S,4S,5R)-3-(3,4-difluoro-2-methoxyphenyl)-4,5-dimethyl-N-(2-(3-methyl-3,6-diazabicyclo[3.1.1]heptane-6-carbonyl)pyridin-4-yl)-5-(trifluoromethyl)tetrahydrofuran-2-carboxamide]
2 | 10 to 100 | COc1c([C@H]2[C@H](C(=O)Nc3ccnc(C(=O)N4C[C@H]5C[C@@H]4CN5C)c3)O[C@@](C)(C(F)(F)F)[C@H]2C)ccc(F)c1F [Compound 279, (2R,3S,4S,5R)-3-(3,4-difluoro-2-methoxyphenyl)-4,5-dimethyl-N-(2-((1R,4R)-5-methyl-2,5-diazabicyclo[2.2.1]heptane-2-carbonyl)pyridin-4-yl)-5-(trifluoromethyl)tetrahydrofuran-2-carboxamide]
3 | < 10 | COc1c([C@H]2[C@H](C(=O)Nc3ccnc(C(=O)N(C)[C@H]4CN(C)C[C@@H]4OC)c3)O[C@@](C)(C(F)(F)F)[C@H]2C)ccc(F)c1F [Compound 286, 4-((2R,3S,4S,5R)-3-(3,4-difluoro-2-methoxyphenyl)-4,5-dimethyl-5-(trifluoromethyl)tetrahydrofuran-2-carboxamido)-N-((3S,4S)-4-methoxy-1-methylpyrrolidin-3-yl)-N-methylpicolinamide]
4 | < 10 | COc1c([C@H]2[C@H](C(=O)Nc3ccnc(C(=O)N4CCN(C)[C@H](C)C4)c3)O[C@@](C)(C(F)(F)F)[C@H]2C)ccc(F)c1F [Compound 288, (2R,3S,4S,5R)-3-(3,4-difluoro-2-methoxyphenyl)-N-(2-((R)-3,4-dimethylpiperazine-1-carbonyl)pyridin-4-yl)-4,5-dimethyl-5-(trifluoromethyl)tetrahydrofuran-2-carboxamide]
5 | 10 to 100 | COc1c([C@H]2[C@H](C(=O)Nc3ccnc(C(=O)N4C[C@@H](C)N(C)C[C@H]4C)c3)O[C@@](C)(C(F)(F)F)[C@H]2C)ccc(F)c1F [Compound 289, (2R,3S,4S,5R)-3-(3,4-difluoro-2-methoxyphenyl)-4,5-dimethyl-5-(trifluoromethyl)-N-(2-((2R,5R)-2,4,5-trimethylpiperazine-1-carbonyl)pyridin-4-yl)tetrahydrofuran-2-carboxamide]
6 | < 10 | CN[C@H]1CN(C(=O)c2cc(NC(=O)[C@@H]3O[C@@](C)(C(F)(F)F)[C@@H](C)[C@H]3c3ccc(F)c(F)c3OC)ccn2)C[C@H]1F [Compound 292, (2R,3S,4S,5R)-3-(3,4-difluoro-2-methoxyphenyl)-N-(2-((3R,4S)-3-fluoro-4-(methylamino)pyrrolidine-1-carbonyl)pyridin-4-yl)-4,5-dimethyl-5-(trifluoromethyl)tetrahydrofuran-2-carboxamide]
7 | < 10 | COc1c([C@H]2[C@H](C(=O)Nc3ccnc(C(=O)N4C[C@H](OC)[C@@H](N(C)C)C4)c3)O[C@@](C)(C(F)(F)F)[C@H]2C)ccc(F)c1F [Compound 293, (2R,3S,4S,5R)-3-(3,4-difluoro-2-methoxyphenyl)-N-(2-((3S,4S)-3-(dimethylamino)-4-methoxypyrrolidine-1-carbonyl)pyridin-4-yl)-4,5-dimethyl-5-(trifluoromethyl)tetrahydrofuran-2-carboxamide]
8 | < 10 | COc1c([C@H]2[C@H](C(=O)Nc3ccnc(C(=O)N4C[C@@H](F)[C@@H](N(C)C)C4)c3)O[C@@](C)(C(F)(F)F)[C@H]2C)ccc(F)c1F [Compound 296, (2R,3S,4S,5R)-3-(3,4-difluoro-2-methoxyphenyl)-N-(2-((3S,4R)-3-(dimethylamino)-4-fluoropyrrolidine-1-carbonyl)pyridin-4-yl)-4,5-dimethyl-5-(trifluoromethyl)tetrahydrofuran-2-carboxamide]

The remaining lines, values behind:

Row | SMILES | IC50 [nM]
9 | COc1c([C@H]2[C@H](C(=O)Nc3ccnc(C(=O)N4CCN(C)C[C@H]4C)c3)O[C@@](C)(C(F)(F)F)[C@H]2C)ccc(F)c1F [Compound 274, (2R,3S,4S,5R)-3-(3,4-difluoro-2-methoxyphenyl)-N-(2-((R)-2,4-dimethylpiperazine-1-carbonyl)pyridin-4-yl)-4,5-dimethyl-5-(trifluoromethyl)tetrahydrofuran-2-carboxamide] | < 10
10 | COc1c([C@H]2[C@H](C(=O)Nc3ccnc(C(=O)NC4CN(C)C4)c3)O[C@@](C)(C(F)(F)F)[C@H]2C)ccc(F)c1F [Compound 275, 4-((2R,3S,4S,5R)-3-(3,4-difluoro-2-methoxyphenyl)-4,5-dimethyl-5-(trifluoromethyl)tetrahydrofuran-2-carboxamido)-N-(1-methylazetidin-3-yl)picolinamide] | 10 to 100
11 | COc1c([C@H]2[C@H](C(=O)Nc3ccnc(C(=O)N[C@H]4CCN(C)C4)c3)O[C@@](C)(C(F)(F)F)[C@H]2C)ccc(F)c1F [Compound 277, 4-((2R,3S,4S,5R)-3-(3,4-difluoro-2-methoxyphenyl)-4,5-dimethyl-5-(trifluoromethyl)tetrahydrofuran-2-carboxamido)-N-((S)-1-methylpyrrolidin-3-yl)picolinamide] | 10 to 100
12 | COc1c([C@H]2[C@H](C(=O)Nc3ccnc(C(=O)N4CC5CC(C4)N5C)c3)O[C@@](C)(C(F)(F)F)[C@H]2C)ccc(F)c1F [Compound 278, (2R,3S,4S,5R)-3-(3,4-difluoro-2-methoxyphenyl)-4,5-dimethyl-N-(2-(6-methyl-3,6-diazabicyclo[3.1.1]heptane-3-carbonyl)pyridin-4-yl)-5-(trifluoromethyl)tetrahydrofuran-2-carboxamide] | < 10
13 | COc1c([C@H]2[C@H](C(=O)Nc3ccnc(C(=O)N4CCN(C)C(C)(C)C4)c3)O[C@@](C)(C(F)(F)F)[C@H]2C)ccc(F)c1F [Compound 280, (2R,3S,4S,5R)-3-(3,4-difluoro-2-methoxyphenyl)-4,5-dimethyl-5-(trifluoromethyl)-N-(2-(3,3,4-trimethylpiperazine-1-carbonyl)pyridin-4-yl)tetrahydrofuran-2-carboxamide] | < 10
14 | COc1c([C@H]2[C@H](C(=O)Nc3ccnc(C(=O)N[C@H]4CN(C)C[C@@H]4OC)c3)O[C@@](C)(C(F)(F)F)[C@H]2C)ccc(F)c1F [Compound 281, 4-((2R,3S,4S,5R)-3-(3,4-difluoro-2-methoxyphenyl)-4,5-dimethyl-5-(trifluoromethyl)tetrahydrofuran-2-carboxamido)-N-((3S,4S)-4-methoxy-1-methylpyrrolidin-3-yl)picolinamide] | 10 to 100
15 | COc1c([C@H]2[C@H](C(=O)Nc3ccnc(C(=O)N4CCO[C@H]5CN(C)C[C@H]54)c3)O[C@@](C)(C(F)(F)F)[C@H]2C)ccc(F)c1F [Compound 282, (2R,3S,4S,5R)-3-(3,4-difluoro-2-methoxyphenyl)-4,5-dimethyl-N-(2-((4aR,7aS)-6-methyloctahydropyrrolo[3,4-b][1,4]oxazine-4-carbonyl)pyridin-4-yl)-5-(trifluoromethyl)tetrahydrofuran-2-carboxamide] | < 10
16 | COc1c([C@H]2[C@H](C(=O)Nc3ccnc(C(=O)N4C[C@H]5CC[C@@H](C4)N(C)C5)c3)O[C@@](C)(C(F)(F)F)[C@H]2C)ccc(F)c1F [Compound 283, (2R,3S,4S,5R)-3-(3,4-difluoro-2-methoxyphenyl)-4,5-dimethyl-N-(2-((1S,5S)-6-methyl-3,6-diazabicyclo[3.2.2]nonane-3-carbonyl)pyridin-4-yl)-5-(trifluoromethyl)tetrahydrofuran-2-carboxamide] | < 10
17 | COc1c([C@H]2[C@H](C(=O)Nc3ccnc(C(=O)N4CC5COCC(C4)N5C)c3)O[C@@](C)(C(F)(F)F)[C@H]2C)ccc(F)c1F [Compound 284, (2R,3S,4S,5R)-3-(3,4-difluoro-2-methoxyphenyl)-4,5-dimethyl-N-(2-(9-methyl-3-oxa-7,9-diazabicyclo[3.3.1]nonane-7-carbonyl)pyridin-4-yl)-5-(trifluoromethyl)tetrahydrofuran-2-carboxamide] | < 10
18 | COc1c([C@H]2[C@H](C(=O)Nc3ccnc(C(=O)N[C@H]4CN(C)CC[C@H]4OC)c3)O[C@@](C)(C(F)(F)F)[C@H]2C)ccc(F)c1F [Compound 285, 4-((2R,3S,4S,5R)-3-(3,4-difluoro-2-methoxyphenyl)-4,5-dimethyl-5-(trifluoromethyl)tetrahydrofuran-2-carboxamido)-N-((3S,4R)-4-methoxy-1-methylpiperidin-3-yl)picolinamide] | 100 to 1000
19 | COC[C@H]1CN(C(=O)c2cc(NC(=O)[C@@H]3O[C@@](C)(C(F)(F)F)[C@@H](C)[C@H]3c3ccc(F)c(F)c3OC)ccn2)CCN1C [Compound 287, (2R,3S,4S,5R)-3-(3,4-difluoro-2-methoxyphenyl)-N-(2-((R)-3-(methoxymethyl)-4-methylpiperazine-1-carbonyl)pyridin-4-yl)-4,5-dimethyl-5-(trifluoromethyl)tetrahydrofuran-2-carboxamide] | < 10
20 | COc1c([C@H]2[C@H](C(=O)Nc3ccnc(C(=O)N[C@H]4C[C@@H](C)CN(C)C4)c3)O[C@@](C)(C(F)(F)F)[C@H]2C)ccc(F)c1F [Compound 290, 4-((2R,3S,4S,5R)-3-(3,4-difluoro-2-methoxyphenyl)-4,5-dimethyl-5-(trifluoromethyl)tetrahydrofuran-2-carboxamido)-N-((3S,5R)-1,5-dimethylpiperidin-3-yl)picolinamide] | 100 to 1000
21 | CCO[C@H]1CN(C)C[C@@H]1NC(=O)c1cc(NC(=O)[C@@H]2O[C@@](C)(C(F)(F)F)[C@@H](C)[C@H]2c2ccc(F)c(F)c2OC)ccn1 [Compound 291, 4-((2R,3S,4S,5R)-3-(3,4-difluoro-2-methoxyphenyl)-4,5-dimethyl-5-(trifluoromethyl)tetrahydrofuran-2-carboxamido)-N-((3S,4S)-4-ethoxy-1-methylpyrrolidin-3-yl)picolinamide] | 100 to 1000
